What was measured:
Assay in all cases: relative viability (nuclei count vs DMSO), 5 days (fraction); higher = more cells survive
NCI-H2228 = tested on: NCI-H2228
In short: (§1)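 The day after seeding in 1536-well plates, lung cancer cell lines were treated by pin tool with a single drug, or with a fixed anchor-drug dose together with five library-drug doses (not always all listed) in √10 steps. After 5 days, a combined fix-and-stain solution (final 0.05% Triton X-100, 1% formaldehyde, 1 ug/ml Hoechst) was added. Nuclei counted on 4× images gave relative viability as treated counts over vehicle counts, reported as the median of duplicate plates.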

RERF-LC-KJ = tested on: RERF-LC-KJ
In short: as §1

HCC-78 = tested on: HCC-78
In short: as §1

NCI-H596 = tested on: NCI-H596
In short: as §1

NCI-H3122 = tested on: NCI-H3122
In short: as §1

SK-MES-1 = tested on: SK-MES-1
In short: as §1

NCI-H1993 = tested on: NCI-H1993
In short: as §1

NCI-H1734 = tested on: NCI-H1734
In short: as §1

NCI-H1355 = tested on: NCI-H1355
In short: as §1

NCI-H2085 = tested on: NCI-H2085
In short: as §1

NCI-H2347 = tested on: NCI-H2347
In short: as §1

NCI-H2405 = tested on: NCI-H2405
In short: as §1

NCI-H838 = tested on: NCI-H838
In short: as §1

LC-2-ad = tested on: LC-2-ad
In short: as §1

ChaGo-K-1 = tested on: ChaGo-K-1
In short: as §1

HCC-366 = tested on: HCC-366
In short: as §1

CAL-12T = tested on: CAL-12T
In short: as §1

HOP-62 = tested on: HOP-62
In short: as §1

NCI-H2009 = tested on: NCI-H2009
In short: as §1

EMC-BAC-2 = tested on: EMC-BAC-2
In short: as §1

PC-14 = tested on: PC-14
In short: as §1

SW 1573 = tested on: SW 1573
In short: as §1

LK-2 = tested on: LK-2
In short: as §1

Compound: O=C(O)CCCCC(CCSCc1ccccc1)SCc1ccccc1 (centres undefined) [CPI-613] + C[C@@H](Oc1cc(-c2cnn(C3CCNCC3)c2)cnc1N)c1c(Cl)ccc(F)c1Cl [Crizotinib] (partner 1 µM)
- relative viability (NCI-H2228; first compound 5 µM): 0.513
- relative viability (NCI-H2228; first compound 15.81 µM): 0.481
- relative viability (NCI-H2228; first compound 50 µM): 0.52
- relative viability (NCI-H2228; first compound 158.11 µM): 0.203
- relative viability (NCI-H2228; first compound 500 µM): 0.0468
- relative viability (RERF-LC-KJ; first compound 5 µM): 0.841
- relative viability (RERF-LC-KJ; first compound 15.81 µM): 0.789
- relative viability (RERF-LC-KJ; first compound 50 µM): 0.76
- relative viability (RERF-LC-KJ; first compound 158.11 µM): 0.876
- relative viability (RERF-LC-KJ; first compound 500 µM): 0.268
- relative viability (HCC-78; first compound 5 µM): 0.346
- relative viability (HCC-78; first compound 15.81 µM): 0.318
- relative viability (HCC-78; first compound 158.11 µM): 0.348
- relative viability (HCC-78; first compound 500 µM): 0.331
- relative viability (NCI-H596; first compound 5 µM): 0.959
- relative viability (NCI-H596; first compound 15.81 µM): 0.966
- relative viability (NCI-H596; first compound 50 µM): 1.1
- relative viability (NCI-H596; first compound 158.11 µM): 0.589
- relative viability (NCI-H596; first compound 500 µM): 0.0472
- relative viability (NCI-H3122; first compound 5 µM): 0.234
- relative viability (NCI-H3122; first compound 15.81 µM): 0.261
- relative viability (NCI-H3122; first compound 50 µM): 0.281
- relative viability (NCI-H3122; first compound 158.11 µM): 0.247
- relative viability (NCI-H3122; first compound 500 µM): 0.0651
- relative viability (SK-MES-1; first compound 5 µM): 0.918
- relative viability (SK-MES-1; first compound 15.81 µM): 0.961
- relative viability (SK-MES-1; first compound 50 µM): 0.936
- relative viability (SK-MES-1; first compound 158.11 µM): 0.926
- relative viability (SK-MES-1; first compound 500 µM): 0.734
- relative viability (NCI-H1993; first compound 5 µM): 0.862
- relative viability (NCI-H1993; first compound 15.81 µM): 0.852
- relative viability (NCI-H1993; first compound 50 µM): 1.01
- relative viability (NCI-H1993; first compound 158.11 µM): 0.639
- relative viability (NCI-H1993; first compound 500 µM): 0.438
- relative viability (NCI-H1734; first compound 5 µM): 0.695
- relative viability (NCI-H1734; first compound 15.81 µM): 0.685
- relative viability (NCI-H1734; first compound 50 µM): 0.62
- relative viability (NCI-H1734; first compound 158.11 µM): 0.279
- relative viability (NCI-H1734; first compound 500 µM): 0.113
- relative viability (NCI-H1355; first compound 5 µM): 1.09
- relative viability (NCI-H1355; first compound 15.81 µM): 1.01
- relative viability (NCI-H1355; first compound 50 µM): 1.07
- relative viability (NCI-H1355; first compound 158.11 µM): 0.152
- relative viability (NCI-H1355; first compound 500 µM): 0.136
- relative viability (NCI-H2085; first compound 5 µM): 0.786
- relative viability (NCI-H2085; first compound 15.81 µM): 0.886
- relative viability (NCI-H2085; first compound 50 µM): 0.839
- relative viability (NCI-H2085; first compound 158.11 µM): 0.415
- relative viability (NCI-H2085; first compound 500 µM): 0.231
- relative viability (NCI-H2347; first compound 5 µM): 0.645
- relative viability (NCI-H2347; first compound 15.81 µM): 0.555
- relative viability (NCI-H2347; first compound 50 µM): 0.695
- relative viability (NCI-H2347; first compound 158.11 µM): 0.669
- relative viability (NCI-H2347; first compound 500 µM): 0.55
- relative viability (NCI-H2405; first compound 5 µM): 0.855
- relative viability (NCI-H2405; first compound 15.81 µM): 0.842
- relative viability (NCI-H2405; first compound 50 µM): 0.825
- relative viability (NCI-H2405; first compound 158.11 µM): 0.828
- relative viability (NCI-H2405; first compound 500 µM): 0.829
- relative viability (NCI-H838; first compound 5 µM): 0.882
- relative viability (NCI-H838; first compound 15.81 µM): 0.833
- relative viability (NCI-H838; first compound 50 µM): 0.803
- relative viability (NCI-H838; first compound 158.11 µM): 0.598
- relative viability (NCI-H838; first compound 500 µM): 0.0806
- relative viability (LC-2-ad; first compound 5 µM): 0.444
- relative viability (LC-2-ad; first compound 15.81 µM): 0.432
- relative viability (LC-2-ad; first compound 50 µM): 0.417
- relative viability (LC-2-ad; first compound 158.11 µM): 0.529
- relative viability (LC-2-ad; first compound 500 µM): 0.51
- relative viability (ChaGo-K-1; first compound 5 µM): 1.14
- relative viability (ChaGo-K-1; first compound 15.81 µM): 1.05
- relative viability (ChaGo-K-1; first compound 50 µM): 0.992
- relative viability (ChaGo-K-1; first compound 158.11 µM): 1.04
- relative viability (ChaGo-K-1; first compound 500 µM): 0.813
- relative viability (HCC-366; first compound 5 µM): 0.533
- relative viability (HCC-366; first compound 15.81 µM): 0.483
- relative viability (HCC-366; first compound 50 µM): 0.381
- relative viability (HCC-366; first compound 158.11 µM): 0.331
- relative viability (HCC-366; first compound 500 µM): 0.0154
- relative viability (CAL-12T; first compound 5 µM): 0.596
- relative viability (CAL-12T; first compound 15.81 µM): 0.504
- relative viability (CAL-12T; first compound 50 µM): 0.471
- relative viability (CAL-12T; first compound 158.11 µM): 0.0667
- relative viability (CAL-12T; first compound 500 µM): 0.0085
- relative viability (HOP-62; first compound 5 µM): 0.862
- relative viability (HOP-62; first compound 15.81 µM): 0.85
- relative viability (HOP-62; first compound 50 µM): 0.851
- relative viability (HOP-62; first compound 158.11 µM): 0.172
- relative viability (HOP-62; first compound 500 µM): 0.387
- relative viability (NCI-H2009; first compound 5 µM): 1.1
- relative viability (NCI-H2009; first compound 15.81 µM): 1.01
- relative viability (NCI-H2009; first compound 50 µM): 1.04
- relative viability (NCI-H2009; first compound 158.11 µM): 0.462
- relative viability (NCI-H2009; first compound 500 µM): 0.0097
- relative viability (EMC-BAC-2; first compound 5 µM): 0.753
- relative viability (EMC-BAC-2; first compound 15.81 µM): 0.708
- relative viability (EMC-BAC-2; first compound 50 µM): 0.83
- relative viability (EMC-BAC-2; first compound 158.11 µM): 0.494
- relative viability (EMC-BAC-2; first compound 500 µM): 0.267
- relative viability (PC-14; first compound 5 µM): 0.871
- relative viability (PC-14; first compound 15.81 µM): 0.939
- relative viability (PC-14; first compound 50 µM): 0.799
- relative viability (PC-14; first compound 158.11 µM): 0.848
- relative viability (PC-14; first compound 500 µM): 0.33
- relative viability (SW 1573; first compound 5 µM): 0.81
- relative viability (SW 1573; first compound 15.81 µM): 0.749
- relative viability (SW 1573; first compound 50 µM): 0.878
- relative viability (SW 1573; first compound 158.11 µM): 0.819
- relative viability (SW 1573; first compound 500 µM): 0.419
- relative viability (LK-2; first compound 5 µM): 0.225
- relative viability (LK-2; first compound 15.81 µM): 0.191
- relative viability (LK-2; first compound 50 µM): 0.227
- relative viability (LK-2; first compound 158.11 µM): 0.219
- relative viability (LK-2; first compound 500 µM): 0.249

Reference: the supplement of paper PMC10307832
